Where two headings read alike, the source gives them in different places. Numbered stars: 1 amine (or outer) side, 2 acyl side, 3 side chain; on linkers, the order of the positions; unused ones are H or OH. Bridge positions count the residues as written; N and C are the ends. Square brackets hold non-standard residues; d marks the D form. Peptide text beside a SMILES is read from it. X2 = CN1CCN(CCCN(CC(=O)[*:2])[*:1])CC1; 2Nal = N[C@@H](Cc1ccc2ccccc2c1)C(=O)O; 4Pal = N[C@@H](Cc1ccncc1)C(=O)O; Cit = NC(=O)NCCC[C@H](N)C(=O)O; Dab = NCC[C@H](N)C(=O)O
Experiments:
[1] = in vitro; details: human
Protocol: Each peptide concentration was assayed in triplicate. […] Wells were then washed once with PBS and subsequently 100 μl MTT reagent (0.5 mg/mL in medium RPMI1640 and, respectively, DMEM) was added to the wells. This was incubated at 37° C. for 2 hours and subsequently the medium was aspirated and 100 μl isopropanol was added to each well. […] For each concentration averages were calculated from triplicates. The percentage of growth was calculated as follows: (OD595peptide-OD595Tz-OD595Empty well)/(OD595Tz-OD595Empty well)×100% and was plotted for each peptide concentration.
‘CCR5’ cells were cultured in DMEM medium with 4500 mg/ml glucose, 10% fetal bovine serum (FBS), supplemented with 50 U/ml Penicillin and 50 μg/ml Streptomycin (Pen/Strept.). Hut/4-3 cells were maintained in RPMI medium, 10% FBS, supplemented with Pen/Strept. and 10 mM HEPES. HELA cells and CCRF-CEM cells were maintained in RPMI1640 plus 5% FBS, Pen/Strept and 2 mM L-Glutamine. Cos-7 cells were grown in DMEM medium with 4500 mg/ml glucose supplemented with 10% FCS, Pen/Strept. and 2 mM L-Glutamine. All cell lines were grown at 37° C. at 5% CO2.

[2] = target: CXCR4 (Homo sapiens, UniProt P61073); assay: Ca2+-assay method 2 (Flexstation, SDF-1 induced calcium mobilization); assay type: cell-based; parameters: expressed in transfected cells; host or cells: mouse pre-B cell line 300-19; details: method 2 (Ex. 54-160), mouse pre-B cell line 300-19 with human CXCR4, 10 nM SDF-1
[3] = system: human red blood cells (hRBC); assay: Hemolysis; assay type: cell-based
Method in brief: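 Percent lysis taken as OD540 of peptide-treated sample over OD540 of the water/0.1% Triton X-100 full-lysis control, with PBS giving 0%. Peptides at 100 μM exposed to PBS-washed human RBCs (20% v/v) for 1 hour at 37° C. before centrifugation and 20-fold dilution of supernatant.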

[4] = read-out: IC50 (nM) Ca^2+ assay
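Throughout, for GI50: MTT reduction read as absorbance at 595 nm, blank-corrected and expressed as percent growth relative to the time-zero cell reading, triplicate wells per concentration.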

Chain of CXCR4 (P61073 whole entry): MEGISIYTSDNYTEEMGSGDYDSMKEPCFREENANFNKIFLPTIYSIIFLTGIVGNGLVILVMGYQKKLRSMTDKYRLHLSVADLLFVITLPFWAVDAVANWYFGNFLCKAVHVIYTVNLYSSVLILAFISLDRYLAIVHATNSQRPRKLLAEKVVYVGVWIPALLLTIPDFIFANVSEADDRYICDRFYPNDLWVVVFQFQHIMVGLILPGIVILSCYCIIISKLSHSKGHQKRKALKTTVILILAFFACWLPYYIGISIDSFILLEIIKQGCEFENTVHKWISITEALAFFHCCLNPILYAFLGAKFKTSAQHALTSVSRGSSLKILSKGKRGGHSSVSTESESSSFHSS

Compound	GI50 at 48 h [1] [nM]	IC50 [2, 4] [nM]	Hemolysis at 100 μM [3] [%]	IC50 ([2]; IC50 (nM) Ca^2+ assay) [nM]	Hemolysis at 100 μM ([3]; percent hemolysis, 100 μM peptide, 20% v/v hRBC, 1 hour at 37° C.) [%]
CN1CCN(CCCN2CC(=O)N[C@@H](Cc3ccc4ccccc4c3)C(=O)N[C@H]3CSSC[C@H](NC(=O)[C@H](CCCNC(N)=O)NC(=O)[C@H](CCCNC(=N)N)NC(=O)[C@H](Cc4ccc(O)cc4)NC(=O)[C@@H]4CCCN4C(=O)[C@H]4CCCN4C(=O)[C@H](CCCCN)NC(=O)[C@H](CCCNC(N)=O)NC(=O)[C@H](Cc4ccc(O)cc4)NC3=O)C(=O)N[C@@H](CCCNC(=N)N)C(=O)NCC(=O)N3CCC[C@@H]3C(=O)N[C@@H](CCCNC(=N)N)C2=O)CC1 [Ex. 126] (cyclo(YR[Cit]CRG[dP]R[X2][2Nal]CY[Cit]K[dP]P); disulfide 4-11)	85000	19.5	0	–	–
CC(C)C[C@@H]1NC(=O)[C@H](Cc2ccc(O)cc2)NC(=O)[C@@H]2CSSC[C@H](NC(=O)[C@H](CCCNC(N)=O)NC(=O)[C@H](CCCNC(=N)N)NC(=O)[C@H](Cc3ccc(O)cc3)NC(=O)[C@@H]3CCCN3C(=O)[C@H]3CCCN3C(=O)[C@H](CCCCN)NC1=O)C(=O)N[C@@H](CCCNC(=N)N)C(=O)NCC(=O)N1CCC[C@@H]1C(=O)N[C@@H](CCCNC(=N)N)C(=O)N[C@@H](CCCNC(=N)N)C(=O)N[C@@H](Cc1ccc3ccccc3c1)C(=O)N2 [Ex. 82] (cyclo(YR[Cit]CRG[dP]RR[2Nal]CYLK[dP]P); disulfide 4-11)	40000	4.8	0	–	–
N=C(N)NCCC[C@@H]1NC(=O)[C@@H]2CSSC[C@H](NC(=O)[C@H](Cc3ccc4ccccc4c3)NC(=O)[C@H](CCCNC(=N)N)NC(=O)[C@H](CCCNC(=N)N)NC(=O)[C@H]3CCCN3C(=O)CNC1=O)C(=O)N[C@@H](Cc1ccc(O)cc1)C(=O)N[C@@H](CCC(N)=O)C(=O)N[C@@H](CCCCN)C(=O)N1CCC[C@@H]1C(=O)N1CCC[C@H]1C(=O)N[C@@H](Cc1ccc(O)cc1)C(=O)N[C@@H](CCCNC(=N)N)C(=O)N1CCC[C@H]1C(=O)N2 [Ex. 74] (cyclo(YRPCRG[dP]RR[2Nal]CYQK[dP]P); disulfide 4-11)	40000	19.5	0.4	–	–
N=C(N)NCCC[C@@H]1NC(=O)[C@@H]2CSSC[C@H](NC(=O)[C@H](Cc3ccc4ccccc4c3)NC(=O)[C@H](CCCNC(=N)N)NC(=O)[C@H](CCCNC(=N)N)NC(=O)[C@H]3CCCN3C(=O)CNC1=O)C(=O)N[C@@H](Cc1ccc(O)cc1)C(=O)N[C@@H](CCC(N)=O)C(=O)N[C@@H](CCCCN)C(=O)N1CCC[C@@H]1C(=O)N1CCC[C@H]1C(=O)N[C@@H](Cc1ccc(O)cc1)C(=O)N[C@@H](CCCNC(=N)N)C(=O)N[C@@H](CCCNC(=N)N)C(=O)N2 [Ex. 69] (cyclo(YRRCRG[dP]RR[2Nal]CYQK[dP]P); disulfide 4-11)	49000	1.8	0.1	–	–
N=C(N)NCCC[C@@H]1NC(=O)[C@@H]2CSSC[C@H](NC(=O)[C@H](Cc3c[nH]c4ccccc34)NC(=O)[C@H](CCCNC(=N)N)NC(=O)[C@H](CCCNC(=N)N)NC(=O)[C@H]3CCCN3C(=O)CNC1=O)C(=O)N[C@@H](Cc1ccc(O)cc1)C(=O)N[C@@H](CCC(N)=O)C(=O)N[C@@H](CCCCN)C(=O)N1CCC[C@@H]1C(=O)N1CCC[C@H]1C(=O)N[C@@H](Cc1ccc(O)cc1)C(=O)N[C@@H](CCCNC(=N)N)C(=O)N[C@@H](CCCNC(N)=O)C(=O)N2 [Ex. 108] (cyclo(YR[Cit]CRG[dP]RRWCYQK[dP]P); disulfide 4-11)	70000	4.6	0	–	–
C[C@@H]1NC(=O)[C@H](CCC(N)=O)NC(=O)[C@H](Cc2ccc(O)cc2)NC(=O)[C@@H]2CSSC[C@H](NC(=O)[C@H](CCCNC(N)=O)NC(=O)[C@H](CCCNC(=N)N)NC(=O)[C@H](Cc3ccc(O)cc3)NC(=O)[C@@H]3CCCN3C(=O)[C@H]3CCCN3C1=O)C(=O)N[C@@H](CCCNC(=N)N)C(=O)NCC(=O)N1CCC[C@@H]1C(=O)N[C@@H](CCCNC(=N)N)C(=O)N[C@@H](CCCNC(=N)N)C(=O)N[C@@H](Cc1ccc3ccccc3c1)C(=O)N2 [Ex. 86] (cyclo(YR[Cit]CRG[dP]RR[2Nal]CYQA[dP]P); disulfide 4-11)	62000	0.69	0	–	–
N=C(N)NCCC[C@@H]1NC(=O)[C@@H]2CSSC[C@H](NC(=O)[C@H](Cc3ccc4ccccc4c3)NC(=O)[C@H](CCCNC(=N)N)NC(=O)[C@H](CCCNC(=N)N)NC(=O)[C@H]3CCCN3C(=O)CNC1=O)C(=O)N[C@@H](Cc1ccc(O)cc1)C(=O)N[C@@H](CCCNC(N)=O)C(=O)N[C@@H](CCC(=O)O)C(=O)N1CCC[C@@H]1C(=O)N1CCC[C@H]1C(=O)N[C@@H](Cc1ccc(O)cc1)C(=O)N[C@@H](CCCNC(=N)N)C(=O)N[C@@H](CCCNC(N)=O)C(=O)N2 [Ex. 103] (cyclo(YR[Cit]CRG[dP]RR[2Nal]CY[Cit]E[dP]P); disulfide 4-11)	42000	18.3	0.2	–	–
C[C@@H](O)[C@@H]1NC(=O)[C@H](CCCNC(=N)N)NC(=O)[C@H](Cc2ccc(O)cc2)NC(=O)[C@@H]2CCCN2C(=O)[C@H]2CCCN2C(=O)[C@H](CCCCN)NC(=O)[C@H](CCCNC(N)=O)NC(=O)[C@H](Cc2ccc(O)cc2)NC(=O)[C@@H]2CSSC[C@H](NC1=O)C(=O)N[C@@H](CCCNC(=N)N)C(=O)NCC(=O)N1CCC[C@@H]1C(=O)N[C@@H](CCCNC(=N)N)C(=O)N[C@@H](CCCNC(=N)N)C(=O)N[C@@H](Cc1ccc3ccccc3c1)C(=O)N2 [Ex. 131] (cyclo(YRTCRG[dP]RR[2Nal]CY[Cit]K[dP]P); disulfide 4-11)	53000	2.4	0	–	–
N=C(N)NCCC[C@@H]1NC(=O)[C@@H]2CSSC[C@H](NC(=O)[C@H](Cc3ccc4ccccc4c3)NC(=O)[C@H](CCCNC(=N)N)NC(=O)[C@H](CCCNC(=N)N)NC(=O)[C@H]3CCCN3C(=O)CNC1=O)C(=O)N[C@@H](Cc1ccc(O)cc1)C(=O)N[C@@H](CCC(N)=O)C(=O)N[C@@H](CCCCN)C(=O)N1CCC[C@@H]1C(=O)N1CCC[C@H]1C(=O)N[C@@H](CCCNC(=N)N)C(=O)N[C@@H](CCCNC(=N)N)C(=O)N[C@@H](CCCNC(N)=O)C(=O)N2 [compound 63] (cyclo(RR[Cit]CRG[dP]RR[2Nal]CYQK[dP]P); disulfide 4-11)	58000	2	0.2	–	–
C[C@@H](O)[C@@H]1NC(=O)[C@H](Cc2ccncc2)NC(=O)[C@H](Cc2ccc(O)cc2)NC(=O)[C@@H]2CCCN2C(=O)[C@H]2CCCN2C(=O)[C@H](CCCCN)NC(=O)[C@H](CCC(N)=O)NC(=O)[C@H](Cc2ccc(O)cc2)NC(=O)[C@@H]2CSSC[C@H](NC1=O)C(=O)N[C@@H](CCCNC(=N)N)C(=O)NCC(=O)N1CCC[C@@H]1C(=O)N[C@@H](CCCNC(=N)N)C(=O)N[C@@H](CCCNC(=N)N)C(=O)N[C@@H](Cc1c[nH]c3ccccc13)C(=O)N2 [Ex. 119] (cyclo(Y[4Pal]TCRG[dP]RRWCYQK[dP]P); disulfide 4-11)	63000	9.4	0	–	–
C[C@@H](O)[C@@H]1NC(=O)[C@H](CCCNC(=N)N)NC(=O)[C@H](Cc2ccc(O)cc2)NC(=O)[C@@H]2CCCN2C(=O)[C@H]2CCCN2C(=O)[C@H](CCCCN)NC(=O)[C@H](CCC(N)=O)NC(=O)[C@H](Cc2ccc(O)cc2)NC(=O)[C@@H]2CSSC[C@H](NC1=O)C(=O)N[C@@H](CCCNC(=N)N)C(=O)NCC(=O)N1CCC[C@@H]1C(=O)N[C@@H](CCN)C(=O)N[C@@H](CCCNC(=N)N)C(=O)N[C@@H](Cc1ccc3ccccc3c1)C(=O)N2 [Ex. 104] (cyclo(YRTCRG[dP][Dab]R[2Nal]CYQK[dP]P); disulfide 4-11)	71000	7.4	0	–	–
N=C(N)NCCC[C@@H]1NC(=O)[C@@H]2CSSC[C@H](NC(=O)[C@H](Cc3ccc(O)cc3)NC(=O)[C@H](CCCNC(=N)N)NC(=O)[C@H](CCCNC(=N)N)NC(=O)[C@H]3CCCN3C(=O)CNC1=O)C(=O)N[C@@H](Cc1ccc(O)cc1)C(=O)N[C@@H](CCC(N)=O)C(=O)N[C@@H](CCCCN)C(=O)N[C@H](CCC(N)=O)C(=O)N1CCC[C@H]1C(=O)N[C@@H](Cc1ccc(O)cc1)C(=O)N[C@@H](CCCNC(=N)N)C(=O)N[C@@H](CCCNC(N)=O)C(=O)N2 [Ex. 149] (cyclo(YR[Cit]CRG[dP]RRYCYQK[dQ]P); disulfide 4-11)	> 100000	–	–	1	0
N=C(N)NCCC[C@@H]1NC(=O)[C@@H]2CSSC[C@H](NC(=O)[C@H](Cc3ccc4ccccc4c3)NC(=O)[C@H](CCCNC(=N)N)NC(=O)[C@H](Cc3ccc(O)cc3)NC(=O)[C@H]3CCCN3C(=O)CNC1=O)C(=O)N[C@@H](Cc1ccc(O)cc1)C(=O)N[C@@H](CCC(N)=O)C(=O)N[C@@H](CCCCN)C(=O)N1CCC[C@@H]1C(=O)N1CCC[C@H]1C(=O)N[C@@H](Cc1ccc(O)cc1)C(=O)N[C@@H](CCCNC(=N)N)C(=O)N[C@@H](CCCNC(N)=O)C(=O)N2 [Ex. 54] (cyclo(YR[Cit]CRG[dP]YR[2Nal]CYQK[dP]P); disulfide 4-11)	54000	6.9	0	–	–
N=C(N)NCCC[C@@H]1NC(=O)[C@@H]2CSSC[C@H](NC(=O)[C@H](Cc3ccc4ccccc4c3)NC(=O)[C@H](CCCNC(=N)N)NC(=O)[C@H](CCCNC(=N)N)NC(=O)[C@H]3CCCN3C(=O)CNC1=O)C(=O)N[C@@H](Cc1ccc(O)cc1)C(=O)N[C@@H](CC(N)=O)C(=O)N[C@@H](CCCCN)C(=O)N1CCC[C@@H]1C(=O)N1CCC[C@H]1C(=O)N[C@@H](Cc1ccc(O)cc1)C(=O)N[C@@H](CCCNC(=N)N)C(=O)N[C@@H](CCCNC(N)=O)C(=O)N2 [Ex. 77] (cyclo(YR[Cit]CRG[dP]RR[2Nal]CYNK[dP]P); disulfide 4-11)	> 100000	7	0.2	–	–

From patent US8895695B2, “Template-fixed beta-hairpin peptidomimetics with CXCR4 antagonizing activity” (priority 2003, dated 2014)
